Key:
rape = assay: Test C preemergence/postemergence greenhouse plant response rating 0 to 100; format: in vivo, Brassica napus; settings: POSTEMERGENCE; for Plant response rating, Rape: 0 to 100 scale
Outline: (§1)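 Compounds in non-phytotoxic solvent went onto sandy loam before emergence (seeded one day earlier) or onto plants at the one-to-four leaf stage. Duck salad was treated via flood water (~2.5 cm, maintained) over silt loam.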

blackgrass = assay: Test B preemergence/postemergence greenhouse plant response rating 0 to 10; format: in vivo, Alopecurus myosuroides; settings: 0 to 10 scale
Outline: (§2)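 Test chemicals, dissolved in a non-phytotoxic solvent, were applied to soil at planting and, at the same time, over foliage of seedlings at the one to four leaf stage.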

crabgrass = assay: Test C preemergence/postemergence greenhouse plant response rating 0 to 100; format: in vivo, Digitaria sanguinalis; settings: POSTEMERGENCE; for Plant response rating, Crabgrass: 0 to 100 scale
Outline: as §1

corn [1] = assay: Test B preemergence/postemergence greenhouse plant response rating 0 to 10; format: in vivo, Zea mays; settings: 0 to 10 scale
Outline: as §2

ryegrass = assay: Test C preemergence/postemergence greenhouse plant response rating 0 to 100; format: in vivo, Lolium multiflorum; settings: POSTEMERGENCE; for Plant response rating Ryegrass: 0 to 100 scale
Outline: as §1

wheat = assay: as above; format: in vivo, Triticum aestivum; settings: POSTEMERGENCE; for Plant response rating, Wheat: 0 to 100 scale
Outline: as §1

sugar beet = assay: Test B preemergence/postemergence greenhouse plant response rating 0 to 10; format: in vivo, Beta vulgaris; settings: 0 to 10 scale
Outline: as §2

barnyardgrass = assay: as above; format: in vivo, Echinochloa crus-galli; settings: 0 to 10 scale
Outline: as §2

sorghum = assay: as above; format: in vivo, Sorghum bicolor; settings: 0 to 10 scale
Outline: as §2

rice = assay: Test C flood test plant response rating 0 to 100; format: in vivo, Oryza sativa; settings: for Plant response rating (0 to 100), Rice Japonica: under POSTEMERGENCE head (flood test species); for Plant response rating Rice Japonica: flood test species listed under POSTEMERGENCE, 0 to 100 scale
Outline: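 Compounds in non-phytotoxic solvent applied preemergence to sandy loam one day after planting, postemergence at the 1–4 leaf stage, or to ~2.5 cm floodwater over silt loam.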

chickweed = assay: Test B preemergence/postemergence greenhouse plant response rating 0 to 10; format: in vivo, Stellaria media; settings: 0 to 10 scale
Outline: as §2

wild oat = assay: Test C preemergence/postemergence greenhouse plant response rating 0 to 100; format: in vivo, Avena fatua; settings: POSTEMERGENCE; for Plant response rating, Wild oat: 0 to 100 scale
Outline: as §1

corn [2] = assay: as above; format: in vivo, Zea mays; settings: POSTEMERGENCE; for Plant response rating, Corn: 0 to 100 scale
Outline: as §1

purple nutsedge = assay: Test B preemergence/postemergence greenhouse plant response rating 0 to 10; format: in vivo, Cyperus rotundus; settings: 0 to 10 scale
Outline: as §2

barley = assay: as above; format: in vivo, Hordeum vulgare; settings: 0 to 10 scale
Outline: as §2

velvetleaf = assay: as above; format: in vivo, Abutilon theophrasti; settings: 0 to 10 scale
Outline: as §2

morningglory = assay: Test C preemergence/postemergence greenhouse plant response rating 0 to 100; format: in vivo, Ipomoea hederacea; settings: POSTEMERGENCE; for Plant response rating, Morningglory: 0 to 100 scale
Outline: as §1

bedstraw = assay: as above; format: in vivo, Galium aparine; settings: POSTEMERGENCE; for Plant response rating, Bedstraw: 0 to 100 scale
Outline: as §1

SMILES: CCOC(=O)COc1cc(-c2nn3c(c2Cl)CCCC3)c(F)cc1Cl [Compound 42]
- Plant response rating, Rape (rape; 62 g/ha): 95
- Plant response rating, Rape (rape; 125 g/ha): 100
- Plant response rating (0 to 100), Rape (rape; Rate 16 g/ha): 50
- Plant response rating (0 to 100), Rape (rape; Rate 31 g/ha): 70
- Plant response rating, Blackgrass (blackgrass; POSTEMERGENCE, Rate 50 g/ha): 2
- Plant response rating, Blackgrass (blackgrass; POSTEMERGENCE, Rate 200 g/ha): 3
- Plant response rating, Blackgrass (blackgrass; PREEMERGENCE, Rate 50 g/ha): 0
- Plant response rating, Blackgrass (blackgrass; Rate 200 g/ha, PREEMERGENCE): 0
- Plant response rating, Crabgrass (crabgrass; 62 g/ha): 10
- Plant response rating, Crabgrass (crabgrass; 125 g/ha): 40
- Plant response rating (0 to 100), Crabgrass (crabgrass; Rate 16 g/ha): 10
- Plant response rating (0 to 100), Crabgrass (crabgrass; Rate 31 g/ha): 10
- Plant response rating, Corn (corn [1]; POSTEMERGENCE, Rate 50 g/ha): 7
- Plant response rating, Corn (corn [1]; POSTEMERGENCE, Rate 200 g/ha): 9
- Plant response rating, Corn (corn [1]; PREEMERGENCE, Rate 50 g/ha): 0
- Plant response rating, Corn (corn [1]; Rate 200 g/ha, PREEMERGENCE): 0
- Plant response rating Ryegrass (ryegrass; 62 g/ha): 30
- Plant response rating Ryegrass (ryegrass; 125 g/ha): 40
- Plant response rating (0 to 100), Ryegrass (ryegrass; Rate 16 g/ha): 10
- Plant response rating (0 to 100), Ryegrass (ryegrass; Rate 31 g/ha): 20
- Plant response rating, Wheat (wheat; 62 g/ha): 30
- Plant response rating, Wheat (wheat; 125 g/ha): 40
- Plant response rating (0 to 100), Wheat (wheat; Rate 16 g/ha): 10
- Plant response rating (0 to 100), Wheat (wheat; Rate 31 g/ha): 20
- Plant response rating, Sugar beet (sugar beet; POSTEMERGENCE, Rate 50 g/ha): 10
- Plant response rating, Sugar beet (sugar beet; PREEMERGENCE, Rate 50 g/ha): 10
- Plant response rating, Sugar beet (sugar beet; Rate 200 g/ha, POSTEMERGENCE): 10
- Plant response rating, Sugar beet (sugar beet; Rate 200 g/ha, PREEMERGENCE): 10
- Plant response rating, Barnyardgrass (barnyardgrass; POSTEMERGENCE, Rate 50 g/ha): 5
- Plant response rating, Barnyardgrass (barnyardgrass; POSTEMERGENCE, Rate 200 g/ha): 8
- Plant response rating, Barnyardgrass (barnyardgrass; PREEMERGENCE, Rate 50 g/ha): 0
- Plant response rating, Barnyardgrass (barnyardgrass; Rate 200 g/ha, PREEMERGENCE): 0
- Plant response rating, Sorghum (sorghum; POSTEMERGENCE, Rate 50 g/ha): 4
- Plant response rating, Sorghum (sorghum; PREEMERGENCE, Rate 50 g/ha): 0
- Plant response rating, Sorghum (sorghum; Rate 200 g/ha, POSTEMERGENCE): 5
- Plant response rating, Sorghum (sorghum; Rate 200 g/ha, PREEMERGENCE): 0
- Plant response rating (0 to 100), Rice Japonica (rice; Rate 16 g/ha): 0
- Plant response rating (0 to 100), Rice Japonica (rice; Rate 31 g/ha): 10
- Plant response rating Rice Japonica (rice; 62 g/ha): 20
- Plant response rating Rice Japonica (rice; 125 g/ha): 40
- Plant response rating, Chickweed (chickweed; POSTEMERGENCE, Rate 50 g/ha): 4
- Plant response rating, Chickweed (chickweed; POSTEMERGENCE, Rate 200 g/ha): 8
- Plant response rating, Chickweed (chickweed; PREEMERGENCE, Rate 50 g/ha): 0
- Plant response rating, Chickweed (chickweed; Rate 200 g/ha, PREEMERGENCE): 0
- Plant response rating, Wild oat (wild oat; 62 g/ha): 30
- Plant response rating, Wild oat (wild oat; 125 g/ha): 30
- Plant response rating (0 to 100), Wild oat (wild oat; Rate 16 g/ha): 10
- Plant response rating (0 to 100), Wild oat (wild oat; Rate 31 g/ha): 10
- Plant response rating, Corn (corn [2]; 62 g/ha): 40
- Plant response rating, Corn (corn [2]; 125 g/ha): 40
- Plant response rating (0 to 100), Corn (corn [2]; Rate 16 g/ha): 20
- Plant response rating (0 to 100), Corn (corn [2]; Rate 31 g/ha): 30
- Plant response rating, Nutsedge (purple nutsedge; POSTEMERGENCE, Rate 50 g/ha): 2
- Plant response rating, Nutsedge (purple nutsedge; PREEMERGENCE, Rate 50 g/ha): 0
- Plant response rating, Nutsedge (purple nutsedge; Rate 200 g/ha, POSTEMERGENCE): 5
- Plant response rating, Nutsedge (purple nutsedge; Rate 200 g/ha, PREEMERGENCE): 0
- Plant response rating, Barley (barley; POSTEMERGENCE, Rate 50 g/ha): 3
- Plant response rating, Barley (barley; POSTEMERGENCE, Rate 200 g/ha): 4
- Plant response rating, Barley (barley; PREEMERGENCE, Rate 50 g/ha): 0
- Plant response rating, Barley (barley; Rate 200 g/ha, PREEMERGENCE): 0
- Plant response rating, Velvetleaf (velvetleaf; POSTEMERGENCE, Rate 50 g/ha): 10
- Plant response rating, Velvetleaf (velvetleaf; PREEMERGENCE, Rate 50 g/ha): 0
- Plant response rating, Velvetleaf (velvetleaf; Rate 200 g/ha, POSTEMERGENCE): 10
- Plant response rating, Velvetleaf (velvetleaf; Rate 200 g/ha, PREEMERGENCE): 6
- Plant response rating, Morningglory (morningglory; 62 g/ha): 100
- Plant response rating, Morningglory (morningglory; 125 g/ha): 100
- Plant response rating (0 to 100), Morningglory (morningglory; Rate 16 g/ha): 90
- Plant response rating (0 to 100), Morningglory (morningglory; Rate 31 g/ha): 95
- Plant response rating, Bedstraw (bedstraw; 62 g/ha): 100
- Plant response rating, Bedstraw (bedstraw; 125 g/ha): 100
- Plant response rating (0 to 100), Bedstraw (bedstraw; Rate 16 g/ha): 80
- Plant response rating (0 to 100), Bedstraw (bedstraw; Rate 31 g/ha): 90
